Measured values from patent publication US20070043112A1, “Use of non-opiates for the potentation of opiates” (priority 2003, published 2007).

Experiment: rat tail flick assay (nociceptive reaction latency)
Assay type: in vivo
Settings: ifenprodil IN 1 mg/rat + morphine IP 6 mg/kg, given 30 min before the test, Student's t test P<0.05 vs morphine group
Procedure: In FIG. 1, results are expressed as mean±sem for 6 experiments, which are (from left to right): vehicle, morphine (6 mg/kg), vehicle, ifenprodil (1 mg/rat), vehicle IN+vehicle IP, and ifenprodil IN (1 mg/rat)+morphine IP (6 mg/kg). • vehicle: 90% saline 10% propylene glycol • vehicle and morphine were given intraperitoneally 30 min. before the test • vehicle and ifenprodil were given intranasally 30 min. before the test • n=10 rats per group • student's T test: * indicates a significant difference in comparison to the vehicle group for P<0.05 • student's T test: † indicates a significant difference in comparison to the morphine group for P<0.05

CC(C(O)c1ccc(O)cc1)N1CCC(Cc2ccccc2)CC1 (stereo not shown) [ifenprodil]
potentiation of morphine analgesia (nociceptive reaction latency): potentiates morphine when administered intranasally
